Test results reported in patent US20260262643A1, “HERBICIDAL BENZOXAZINES” (FMC CORPORATION, priority 2022, published 2026).

Legend:
barnyardgrass [1] = test: Test C preemergence; assay type: in vivo, Echinochloa crusgalli; conditions: for Barnyardgrass plant response rating: preemergence; for Plant response rating, Barnyardgrass: Preemergence
Outline: (§1)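 Greenhouse herbicide screen, 10-day duration. Test chemicals in solvent/surfactant blend were sprayed onto soil at sowing (pre) or onto 2–10 cm seedlings at one to two leaves (post); injury scored visually against controls, 0 no effect to 100 complete control.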

blackgrass [2] = test: Test C preemergence; assay type: in vivo, Alopecurus myosuroides; conditions: for Blackgrass plant response rating: preemergence; for Plant response rating, Blackgrass: Preemergence
Outline: as §1

pigweed, palmer [3] = test: Test C preemergence; assay type: in vivo, Amaranthus palmeri; conditions: for Pigweed, Palmer plant response rating: preemergence; for Plant response rating, Pigweed, Palmer: Preemergence
Outline: as §1

sedge, umbrella = test: Test D flooded paddy test; assay type: in vivo, Cyperus difformis; conditions: 250 g ai/ha, applied to paddy water, visual rating after 13 to 14 days, scale 0 to 100 (0 no effect, 100 complete control)
Outline: (§2)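 Seedlings reached the 2-leaf stage, then pots were flooded to 3 cm over the soil surface. Compound was applied into the water, depth was maintained, and plants stayed in the greenhouse 13 to 14 days before visual scoring (0–100) relative to controls.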

oat, wild [4] = test: Test C preemergence; assay type: in vivo, Avena fatua; conditions: for Oat, Wild plant response rating: preemergence; for Plant response rating, Oat, Wild: Preemergence
Outline: as §1

soybean [5] = test: Test C preemergence; assay type: in vivo, Glycine max; conditions: for Soybean plant response rating: preemergence; for Plant response rating, Soybean: Preemergence
Outline: as §1

green foxtail [6] = test: Test C preemergence; assay type: in vivo, Setaria viridis; conditions: for Foxtail, Green plant response rating: preemergence; for Plant response rating, Foxtail, Green: Preemergence
Outline: as §1

barnyardgrass [7] = test: Test D flooded paddy test; assay type: in vivo, Echinochloa crus-galli; conditions: 250 g ai/ha, applied to paddy water, visual rating after 13 to 14 days, scale 0 to 100 (0 no effect, 100 complete control)
Outline: as §2

wheat [8] = test: Test C preemergence; assay type: in vivo, Triticum aestivum; conditions: for Wheat plant response rating: preemergence; for Plant response rating, Wheat: Preemergence
Outline: as §1

blackgrass [9] = test: Test C postemergence; assay type: in vivo, Alopecurus myosuroides; conditions: 10 days
Outline: as §1

ragweed [10] = test: Test C postemergence; assay type: in vivo, Ambrosia artemisiifolia; conditions: 10 days
Outline: as §1

soybean [11] = test: Test C postemergence; assay type: in vivo, Glycine max; conditions: 10 days
Outline: as §1

corn [12] = test: Test C postemergence; assay type: in vivo, Zea mays; conditions: 10 days
Outline: as §1

ryegrass, Italian [13] = test: Test C postemergence; assay type: in vivo, Lolium multiflorum; conditions: 10 days
Outline: as §1

horseweed = test: Test C postemergence; assay type: in vivo, Erigeron canadensis; conditions: 10 days
Outline: as §1

ryegrass, Italian [14] = test: Test C preemergence; assay type: in vivo, Lolium multiflorum; conditions: for Ryegrass, Italian plant response rating: preemergence; for Plant response rating, Ryegrass, Italian: Preemergence
Outline: as §1

corn [15] = test: Test C preemergence; assay type: in vivo, Zea mays; conditions: for Corn plant response rating: preemergence; for Plant response rating, Corn: Preemergence
Outline: as §1

wheat [16] = test: Test C postemergence; assay type: in vivo, Triticum aestivum; conditions: 10 days
Outline: as §1

galium = test: Test C postemergence; assay type: in vivo, Galium aparine; conditions: 10 days
Outline: as §1

oat, wild [17] = test: Test C postemergence; assay type: in vivo, Avena fatua; conditions: 10 days
Outline: as §1

ducksalad = test: Test D flooded paddy test; assay type: in vivo, Heteranthera limosa; conditions: 250 g ai/ha, applied to paddy water, visual rating after 13 to 14 days, scale 0 to 100 (0 no effect, 100 complete control)
Outline: as §2

kochia [18] = test: Test C preemergence; assay type: in vivo, Bassia scoparia; conditions: for Kochia plant response rating: preemergence; for Plant response rating, Kochia: Preemergence
Outline: as §1

green foxtail [19] = test: Test C postemergence; assay type: in vivo, Setaria viridis; conditions: 10 days
Outline: as §1

kochia [20] = test: Test C postemergence; assay type: in vivo, Bassia scoparia; conditions: 10 days
Outline: as §1

barnyardgrass [21] = test: Test C postemergence; assay type: in vivo, Echinochloa crusgalli; conditions: 10 days
Outline: as §1

rice = test: Test D flooded paddy test; assay type: in vivo, Oryza sativa; conditions: 250 g ai/ha, applied to paddy water, visual rating after 13 to 14 days, scale 0 to 100 (0 no effect, 100 complete control)
Outline: as §2

pigweed, palmer [22] = test: Test C postemergence; assay type: in vivo, Amaranthus palmeri; conditions: 10 days
Outline: as §1

ragweed [23] = test: Test C preemergence; assay type: in vivo, Ambrosia artemisiifolia; conditions: for Ragweed plant response rating: preemergence; for Plant response rating, Ragweed: Preemergence
Outline: as §1

[24] = 500 g ai/ha, 0 to 100 scale (0 no effect, 100 complete control)
[25] = 125 g ai/ha, 0 to 100 scale, 0 no effect, 100 complete control
[26] = 500 g ai/ha, postemergence, 0 to 100 scale (0 no effect, 100 complete control)
[27] = Postemergence, 125 g ai/ha, 0 to 100 scale (0 no effect, 100 complete control)
[28] = 500 g ai/ha, visual rating after 10 days, 0 to 100 scale (0 no effect, 100 complete control)
[29] = Test C, 125 g ai/ha, 0 to 100 scale (0 no effect, 100 complete control)
[30] = 125 g ai/ha, postemergence, 0 to 100 scale, 0 no effect, 100 complete control
[31] = Postemergence, 500 g ai/ha, visual 0 to 100 scale (0 no effect, 100 complete control)

SMILES: COCc1ncn(-c2ccc(C)c(C(=O)N3C[C@H](C)Oc4c(Cl)cccc43)c2)n1 [Compound 357]
- Barnyardgrass plant response rating (barnyardgrass [1]; [24]): 100
- Plant response rating, Barnyardgrass (barnyardgrass [1]; [25]): 80
- Blackgrass plant response rating (blackgrass [2]; [24]): 100
- Plant response rating, Blackgrass (blackgrass [2]; [25]): 80
- Pigweed, Palmer plant response rating (pigweed, palmer [3]; [24]): 100
- Plant response rating, Pigweed, Palmer (pigweed, palmer [3]; [25]): 90
- Plant response rating, Sedge, Umbrella (Flood) (sedge, umbrella): 90
- Oat, Wild plant response rating (oat, wild [4]; [24]): 90
- Plant response rating, Oat, Wild (oat, wild [4]; [25]): 60
- Soybean plant response rating (soybean [5]; [24]): 100
- Plant response rating, Soybean (soybean [5]; [25]): 100
- Foxtail, Green plant response rating (green foxtail [6]; [24]): 100
- Plant response rating, Foxtail, Green (green foxtail [6]; [25]): 100
- Plant response rating, Barnyardgrass (Flood) (barnyardgrass [7]): 10
- Wheat plant response rating (wheat [8]; [24]): 70
- Plant response rating, Wheat (wheat [8]; [25]): 0
- Plant response rating, Blackgrass (blackgrass [9]; [26]): 100
- Plant response rating, Blackgrass (blackgrass [9]; [27]): 90
- Plant response rating, Ragweed (ragweed [10]; [26]): 60
- Plant response rating, Ragweed (ragweed [10]; [27]): 20
- Plant response rating, Soybean (soybean [11]; [26]): 100
- Plant response rating, Soybean (soybean [11]; [27]): 100
- Plant response rating, Corn (corn [12]; [26]): 80
- Plant response rating, Corn (corn [12]; [27]): 40
- Plant response rating, Ryegrass, Italian (ryegrass, Italian [13]; [26]): 100
- Plant response rating, Ryegrass, Italian (ryegrass, Italian [13]; [27]): 50
- Plant response rating, Horseweed (horseweed; [26]): 80
- Plant response rating, Horseweed (horseweed; [27]): 60
- Ryegrass, Italian plant response rating (ryegrass, Italian [14]; [24]): 100
- Plant response rating, Ryegrass, Italian (ryegrass, Italian [14]; [25]): 100
- Corn plant response rating (corn [15]; [24]): 20
- Plant response rating, Corn (corn [15]; [25]): 10
- Plant response rating, Wheat (wheat [16]; [26]): 80
- Plant response rating, Wheat (wheat [16]; [27]): 20
- Plant response rating, Galium (galium; [26]): 100
- Plant response rating, Galium (galium; [27]): 100
- Plant response rating, Oat, Wild (oat, wild [17]; [26]): 90
- Plant response rating, Oat, Wild (oat, wild [17]; [27]): 30
- Plant response rating, Ducksalad (Flood) (ducksalad): 45
- Kochia plant response rating (kochia [18]; [24]): 90
- Plant response rating, Kochia (kochia [18]; [25]): 50
- Plant response rating, Foxtail, Green (green foxtail [19]; [26]): 90
- Plant response rating, Foxtail, Green (green foxtail [19]; [27]): 30
- Plant response rating, Kochia (kochia [20]; [26]): 70
- Plant response rating, Kochia (kochia [20]; [27]): 50
- Plant response rating, Barnyardgrass (barnyardgrass [21]; [26]): 100
- Plant response rating, Barnyardgrass (barnyardgrass [21]; [27]): 50
- Plant response rating, Rice (Flood) (rice): 0
- Plant response rating, Pigweed, Palmer (pigweed, palmer [22]; [26]): 100
- Plant response rating, Pigweed, Palmer (pigweed, palmer [22]; [27]): 50
- Ragweed plant response rating (ragweed [23]; [24]): 60
- Plant response rating, Ragweed (ragweed [23]; [25]): 10

SMILES: CCn1cnc(-c2cccc(C(=O)N3C[C@H](C)Oc4c(Cl)cccc43)c2)n1 [Compound 173]
- Plant response rating, Barnyardgrass (barnyardgrass [1]; [28]): 0
- Barnyardgrass plant response rating (barnyardgrass [1]; [29]): 0
- Plant response rating, Blackgrass (blackgrass [2]; [28]): 0
- Blackgrass plant response rating (blackgrass [2]; [29]): 0
- Plant response rating, Pigweed, Palmer (pigweed, palmer [3]; [28]): 0
- Pigweed, Palmer plant response rating (pigweed, palmer [3]; [29]): 0
- Plant response rating, Sedge, Umbrella (Flood) (sedge, umbrella): 0
- Plant response rating, Oat, Wild (oat, wild [4]; [28]): 0
- Oat, Wild plant response rating (oat, wild [4]; [29]): 0
- Plant response rating, Soybean (soybean [5]; [28]): 0
- Soybean plant response rating (soybean [5]; [29]): 0
- Plant response rating, Foxtail, Green (green foxtail [6]; [28]): 0
- Foxtail, Green plant response rating (green foxtail [6]; [29]): 0
- Plant response rating, Barnyardgrass (Flood) (barnyardgrass [7]): 0
- Plant response rating, Wheat (wheat [8]; [28]): 0
- Wheat plant response rating (wheat [8]; [29]): 0
- Plant response rating, Blackgrass (blackgrass [9]; [30]): 0
- Plant response rating, Blackgrass (blackgrass [9]; [31]): 0
- Plant response rating, Ragweed (ragweed [10]; [30]): 0
- Plant response rating, Ragweed (ragweed [10]; [31]): 30
- Plant response rating, Soybean (soybean [11]; [30]): 0
- Plant response rating, Soybean (soybean [11]; [31]): 30
- Plant response rating, Corn (corn [12]; [30]): 0
- Plant response rating, Corn (corn [12]; [31]): 0
- Plant response rating, Ryegrass, Italian (ryegrass, Italian [13]; [30]): 0
- Plant response rating, Ryegrass, Italian (ryegrass, Italian [13]; [31]): 0
- Plant response rating, Horseweed (horseweed; [30]): 10
- Plant response rating, Horseweed (horseweed; [31]): 10
- Plant response rating, Ryegrass, Italian (ryegrass, Italian [14]; [28]): 50
- Ryegrass, Italian plant response rating (ryegrass, Italian [14]; [29]): 20
- Plant response rating, Corn (corn [15]; [28]): 0
- Corn plant response rating (corn [15]; [29]): 0
- Plant response rating, Wheat (wheat [16]; [30]): 0
- Plant response rating, Wheat (wheat [16]; [31]): 0
- Plant response rating, Galium (galium; [30]): 20
- Plant response rating, Galium (galium; [31]): 50
- Plant response rating, Oat, Wild (oat, wild [17]; [30]): 0
- Plant response rating, Oat, Wild (oat, wild [17]; [31]): 0
- Plant response rating, Ducksalad (Flood) (ducksalad): 0
- Plant response rating, Kochia (kochia [18]; [28]): 0
- Kochia plant response rating (kochia [18]; [29]): 0
- Plant response rating, Foxtail, Green (green foxtail [19]; [30]): 0
- Plant response rating, Foxtail, Green (green foxtail [19]; [31]): 40
- Plant response rating, Kochia (kochia [20]; [30]): 0
- Plant response rating, Kochia (kochia [20]; [31]): 30
- Plant response rating, Barnyardgrass (barnyardgrass [21]; [30]): 10
- Plant response rating, Barnyardgrass (barnyardgrass [21]; [31]): 10
- Plant response rating, Rice (Flood) (rice): 0
- Plant response rating, Pigweed, Palmer (pigweed, palmer [22]; [30]): 0
- Plant response rating, Pigweed, Palmer (pigweed, palmer [22]; [31]): 20
- Plant response rating, Ragweed (ragweed [23]; [28]): 60
- Ragweed plant response rating (ragweed [23]; [29]): 30
